Data taken from patent publication US20150105252A1, “SUBSTITUTED PYRAZOLES AS HERBICIDES” (E I DU PONT DE NEMOURS AND COMPANY, priority 2013, published 2015).

Experiments:
barnyardgrass [1] = test: Test A preemergence; type: in vivo, Echinochloa crus-galli
Outline: (§1)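 Both timings tested concurrently in loam/sand soil: preemergence by directed soil spray, postemergence on plants of 2–10 cm at the one- to two-leaf stage. Greenhouse holding period was approximately 10 days before visual injury assessment (0–100, 0 = no effect).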

crabgrass, large [2] = test: Test A preemergence; type: in vivo, Digitaria sanguinalis
Outline: as §1

foxtail, giant [3] = test: Test A preemergence; type: in vivo, Setaria faberii
Outline: as §1

morningglory [4] = test: Test A preemergence; type: in vivo, Ipomoea spp.
Outline: as §1

pigweed [5] = test: Test A preemergence; type: in vivo, Amaranthus retroflexus
Outline: as §1

velvetleaf [6] = test: Test A preemergence; type: in vivo, Abutilon theophrasti
Outline: as §1

wheat [7] = test: Test A preemergence; type: in vivo, Triticum aestivum; conditions: preemergence
Outline: as §1

corn [8] = test: Test A preemergence; type: in vivo, Zea mays
Outline: as §1

barnyardgrass [9] = test: Test A postemergence; type: in vivo, Echinochloa crus-galli; conditions: Postemergence
Outline: as §1

crabgrass, large [10] = test: Test A postemergence; type: in vivo, Digitaria sanguinalis
Outline: as §1

foxtail, giant [11] = test: Test A postemergence; type: in vivo, Setaria faberii
Outline: as §1

morningglory [12] = test: Test A postemergence; type: in vivo, Ipomoea spp.
Outline: as §1

pigweed [13] = test: Test A postemergence; type: in vivo, Amaranthus retroflexus
Outline: as §1

velvetleaf [14] = test: Test A postemergence; type: in vivo, Abutilon theophrasti
Outline: as §1

wheat [15] = test: Test A postemergence; type: in vivo, Triticum aestivum
Outline: as §1

corn [16] = test: Test A postemergence; type: in vivo, Zea mays
Outline: as §1

rice = test: Test B flood; type: in vivo, Oryza sativa; conditions: 250 g ai/ha, visual rating on 0 to 100 scale (0 no effect, 100 complete control), 13 to 15 days
Description: (§2) Seeds selected from rice (Oryza sativa), sedge, umbrella (small-flower umbrella sedge Cyperus difformis), ducksalad (Heteranthera limosa), and barnyardgrass (Echinochloa crus-galli) were grown to the 2-leaf stage for testing. At time of treatment, test pots were flooded to 3 cm above the soil surface, treated by application of test compounds directly to the paddy water, and then maintained at that water depth for the duration of the test.
(§3) Treated plants and controls were maintained in a greenhouse for 13 to 15 days, after which time all species were compared to controls and visually evaluated. Plant response ratings, summarized in Table B, are based on a scale of 0 to 100 where 0 is no effect and 100 is complete control. A dash (-) response means no test result.

sedge, umbrella = test: Test B flood; type: in vivo, Cyperus difformis; conditions: 250 g ai/ha, visual rating on 0 to 100 scale (0 no effect, 100 complete control), 13 to 15 days
Description: as §2, §3

ducksalad = test: Test B flood; type: in vivo, Heteranthera limosa; conditions: 250 g ai/ha, visual rating on 0 to 100 scale (0 no effect, 100 complete control), 13 to 15 days
Description: as §2, §3

barnyardgrass [17] = test: Test B flood; type: in vivo, Echinochloa crus-galli; conditions: 250 g ai/ha, visual rating on 0 to 100 scale (0 no effect, 100 complete control), 13 to 15 days
Description: as §2, §3

[18] = Preemergence, 500 g ai/ha, 0 to 100 scale, 0 no effect, 100 complete control
[19] = preemergence, 125 g ai/ha, visual injury, 0 to 100 scale, approx. 10 days
[20] = 125 g ai/ha, visual injury, 0 to 100 scale, approx. 10 days
[21] = 500 g ai/ha, visual injury after approx. 10 days, 0 to 100 scale (0 no effect, 100 complete control)
[22] = 125 g ai/ha, 0 to 100 scale, 0 no effect, 100 complete control
[23] = 500 g ai/ha, visual rating after approx. 10 days, 0 to 100 scale (0 no effect, 100 complete control)
[24] = Postemergence, 500 g ai/ha, visual rating after approx. 10 days, 0 to 100 scale (0 no effect, 100 complete control)
[25] = postemergence, 125 g ai/ha, about 10 days, visual rating on 0 to 100 scale (0 no effect, 100 complete control)
[26] = preemergence, 500 g ai/ha, visual injury after approx. 10 days, 0 to 100 scale (0 no effect, 100 complete control)

Row | SMILES | Barnyardgrass plant response rating (barnyardgrass [1]; [19]) | Crabgrass, Large plant response rating (crabgrass, large [2]; [19]) | Foxtail, Giant plant response rating (foxtail, giant [3]; [19]) | Morningglory plant response rating (morningglory [4]; [19]) | Pigweed plant response rating (pigweed [5]; [19]) | Velvetleaf plant response rating (velvetleaf [6]; [19]) | Wheat plant response rating (wheat [7]; [20]) | Wheat plant response rating (wheat [7]; [21]) | Corn plant response rating (corn [8]; [19]) | Barnyardgrass plant response rating (barnyardgrass [9]; [22]) | Barnyardgrass plant response rating (barnyardgrass [9]; [23]) | Crabgrass, Large plant response rating (crabgrass, large [10]; [24]) | Crabgrass, Large plant response rating (crabgrass, large [10]; [25]) | Foxtail, Giant plant response rating (foxtail, giant [11]; [24]) | Foxtail, Giant plant response rating (foxtail, giant [11]; [25]) | Morningglory plant response rating (morningglory [12]; [24]) | Morningglory plant response rating (morningglory [12]; [25]) | Pigweed plant response rating (pigweed [13]; [24]) | Pigweed plant response rating (pigweed [13]; [25]) | Velvetleaf plant response rating (velvetleaf [14]; [24]) | also measured
1 | Cc1cc(C(=O)NCC(F)(F)F)nn1Oc1ccnc(C(F)(F)F)c1 [Compound 79] | 10 | 60 | 10 | 0 | 30 | 0 | 0 | 20 | 0 | 0 | 30 | 60 | 20 | 30 | 10 | 70 | 30 | 60 | 40 | 50 | Barnyardgrass plant response rating (barnyardgrass [1]; [18]): 70; Crabgrass, Large plant response rating (crabgrass, large [2]; [18]): 90; Foxtail, Giant plant response rating (foxtail, giant [3]; [18]): 90; Morningglory plant response rating (morningglory [4]; [18]): 50; Pigweed plant response rating (pigweed [5]; [18]): 100; Velvetleaf plant response rating (velvetleaf [6]; [18]): 60; Corn plant response rating (corn [8]; [18]): 0; Velvetleaf plant response rating (velvetleaf [14]; [25]): 40; Wheat plant response rating (wheat [15]; [24]): 20; Wheat plant response rating (wheat [15]; [25]): 0; Corn plant response rating (corn [16]; [24]): 10; Corn plant response rating (corn [16]; [25]): 10; Plant response rating, Rice (rice): 0; Plant response rating, Sedge, Umbrella (sedge, umbrella): 0; Plant response rating, Ducksalad (ducksalad): 0; Plant response rating, Barnyardgrass (barnyardgrass [17]): 0
2 | Cc1cc(C(=O)NC2CC2)nn1Oc1ccnc(C(F)(F)F)c1 [Compound 81] | 20 | 60 | 30 | 0 | 40 | 0 | 0 | 10 | 0 | 0 | 20 | 40 | 10 | 30 | 10 | 50 | 30 | 50 | 30 | 30 | Barnyardgrass plant response rating (barnyardgrass [1]; [18]): 70; Crabgrass, Large plant response rating (crabgrass, large [2]; [18]): 100; Foxtail, Giant plant response rating (foxtail, giant [3]; [18]): 100; Morningglory plant response rating (morningglory [4]; [18]): 60; Pigweed plant response rating (pigweed [5]; [18]): 90; Velvetleaf plant response rating (velvetleaf [6]; [18]): 60; Corn plant response rating (corn [8]; [18]): 0; Velvetleaf plant response rating (velvetleaf [14]; [25]): 20; Wheat plant response rating (wheat [15]; [24]): 0; Wheat plant response rating (wheat [15]; [25]): 0; Corn plant response rating (corn [16]; [24]): 20; Corn plant response rating (corn [16]; [25]): 10; Plant response rating, Rice (rice): 0; Plant response rating, Sedge, Umbrella (sedge, umbrella): 0; Plant response rating, Ducksalad (ducksalad): 0; Plant response rating, Barnyardgrass (barnyardgrass [17]): 0
3 | CCCNC(=O)c1cc(CC)n(Oc2ccnc(C(F)(F)F)c2)n1 [Compound 82] | 30 | 70 | 40 | 10 | 0 | 0 | 10 | 60 | 20 | 20 | 50 | 60 | 30 | 60 | 10 | 60 | 50 | 30 | 10 | 20 | Barnyardgrass plant response rating (barnyardgrass [1]; [18]): 80; Crabgrass, Large plant response rating (crabgrass, large [2]; [18]): 100; Foxtail, Giant plant response rating (foxtail, giant [3]; [18]): 100; Morningglory plant response rating (morningglory [4]; [18]): 50; Pigweed plant response rating (pigweed [5]; [18]): 60; Velvetleaf plant response rating (velvetleaf [6]; [18]): 20; Corn plant response rating (corn [8]; [18]): 60; Velvetleaf plant response rating (velvetleaf [14]; [25]): 10; Wheat plant response rating (wheat [15]; [24]): 50; Wheat plant response rating (wheat [15]; [25]): 0; Corn plant response rating (corn [16]; [24]): 60; Corn plant response rating (corn [16]; [25]): 20; Plant response rating, Rice (rice): 0; Plant response rating, Sedge, Umbrella (sedge, umbrella): 75; Plant response rating, Ducksalad (ducksalad): 30; Plant response rating, Barnyardgrass (barnyardgrass [17]): 0
4 | CCCCNC(=O)c1cc(C)n(Oc2ccnc(C(F)(F)F)c2)n1 [Compound 85] | 0 | 20 | 0 | 0 | 0 | 0 | 0 | 0 | 0 | 0 | 10 | 20 | 10 | 20 | 0 | 40 | 10 | 10 | 0 | 10 | Barnyardgrass plant response rating (barnyardgrass [1]; [18]): 30; Crabgrass, Large plant response rating (crabgrass, large [2]; [18]): 80; Foxtail, Giant plant response rating (foxtail, giant [3]; [18]): 50; Morningglory plant response rating (morningglory [4]; [18]): 10; Pigweed plant response rating (pigweed [5]; [18]): 0; Velvetleaf plant response rating (velvetleaf [6]; [18]): 0; Corn plant response rating (corn [8]; [18]): 0; Velvetleaf plant response rating (velvetleaf [14]; [25]): 0; Wheat plant response rating (wheat [15]; [24]): 0; Wheat plant response rating (wheat [15]; [25]): 0; Corn plant response rating (corn [16]; [24]): 10; Corn plant response rating (corn [16]; [25]): 0; Plant response rating, Rice (rice): 0; Plant response rating, Sedge, Umbrella (sedge, umbrella): 0; Plant response rating, Ducksalad (ducksalad): 0; Plant response rating, Barnyardgrass (barnyardgrass [17]): 0
5 | CCCNC(=O)c1cc(CC)n(Cc2cccc(C(F)(F)F)n2)n1 [Compound 88] | 0 | 0 | 0 | 0 | 0 | 0 | 0 | 0 | 0 | 0 | 0 | 10 | 0 | 0 | 0 | 10 | 10 | 10 | 0 | 10 | Barnyardgrass plant response rating (barnyardgrass [1]; [26]): 0; Crabgrass, Large plant response rating (crabgrass, large [2]; [26]): 30; Foxtail, Giant plant response rating (foxtail, giant [3]; [26]): 0; Morningglory plant response rating (morningglory [4]; [26]): 10; Pigweed plant response rating (pigweed [5]; [26]): 0; Velvetleaf plant response rating (velvetleaf [6]; [26]): 0; Corn plant response rating (corn [8]; [26]): 0; Velvetleaf plant response rating (velvetleaf [14]; [25]): 0; Wheat plant response rating (wheat [15]; [24]): 0; Wheat plant response rating (wheat [15]; [25]): 0; Corn plant response rating (corn [16]; [24]): 10; Corn plant response rating (corn [16]; [25]): 0; Plant response rating, Rice (rice): 0; Plant response rating, Sedge, Umbrella (sedge, umbrella): 0; Plant response rating, Ducksalad (ducksalad): 0; Plant response rating, Barnyardgrass (barnyardgrass [17]): 0
